PubChem BioAssay AID330 (DTP/NCI, 2004)
Several values for one entry are separate records, joined by “and”; a condition that tells them apart may be missing. Equal values may be shown once. Inconclusive results and toxic doses are left out.

System: P388 leukemia ip, CD2F1 mice, survival T/C
Experiment: NCI In Vivo Anticancer Drug Screen. Data for tumor model P388 Leukemia (intraperitoneal) in CD2F1 (CDF1) mice
Settings: endpoint: median survival time, higher = longer survival
Procedure, shortened: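 Mice carrying the transplanted tumor received test compound or vehicle. Survival was recorded in each group, and the value is the treated-group measurement divided by that of the vehicle-treated control group.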

[1] = dose: 50.0 mg/kg/injection, schedule: Q01DX005 (ip), vehicle: saline with Tween-80
[2] = dose: 100.0 mg/kg/injection, schedule: Q01DX005 (ip), vehicle: saline with Tween-80
[3] = dose: 60.0 mg/kg/injection, schedule: Q01DX005 (ip), vehicle: saline with Tween-80
[4] = dose: 120.0 mg/kg/injection, schedule: Q01DX005 (ip), vehicle: saline with Tween-80
[5] = dose: 240.0 mg/kg/injection, schedule: Q01DX005 (ip), vehicle: saline with Tween-80

Question: How did the T/C (dose: 25.0 mg/kg/injection, schedule: Q01DX005 (ip), vehicle: saline with Tween-80) turn out when `CC(C)(NCc1ccccc1)C(=O)OC(C)(C)C(=O)NCc1ccccc1` was run?
Answer: 100 % of control and 103 % of control

Question: What about the T/C [1] of the same molecule?
Answer: 95 % of control and 108 % of control

Question: What about the T/C [2] of the same molecule?
Answer: 95 % of control

Question: What does the source list for `CC(C)C(=O)CC1(O)C(=O)Nc2ccc([N+](=O)[O-])cc21` (stereo not drawn)?
Answer: T/C [3]: 101 % of control; T/C [4]: 93 % of control; T/C [5]: 91 % of control

Question: With `O=C(O)C1CCC(CNCC2C(=O)OC3CCC4C(O)CC(O)C4CC32)CC1` (stereo not drawn) as the molecule, how does the T/C (dose: 100.0 mg/kg/injection, schedule: Q04DX002 (ip), vehicle: saline) read?
Answer: 97 % of control

Question: What about the T/C (dose: 200.0 mg/kg/injection, schedule: Q04DX002 (ip), vehicle: saline) of the same molecule?
Answer: 100 % of control

Question: And the T/C (dose: 400.0 mg/kg/injection, schedule: Q04DX002 (ip), vehicle: saline)?
Answer: 105 % of control

Question: `CCOc1ccc(C(C)c2cc3c(cc2OC)OCO3)cc1` (stereo not drawn) was tested. Which T/C (dose: 15.0 mg/kg/injection, schedule: Q01DX005 (ip), vehicle: distilled water + Tween-80) did it give?
Answer: 102 % of control

Question: What about the T/C (dose: 25.0 mg/kg/injection, schedule: Q01DX005 (ip), vehicle: distilled water + Tween-80) of the same molecule?
Answer: 100 % of control and 105 % of control (2×)

Question: And the T/C (dose: 31.0 mg/kg/injection, schedule: Q01DX005 (ip), vehicle: distilled water + Tween-80)?
Answer: 118 % of control

Question: And the T/C (dose: 62.5 mg/kg/injection, schedule: Q01DX005 (ip), vehicle: distilled water + Tween-80)?
Answer: 124 % of control

Question: And the T/C (dose: 72.0 mg/kg/injection, schedule: Q01DX005 (ip), vehicle: distilled water + Tween-80)?
Answer: 118 % of control and 119 % of control

Question: What about the T/C (dose: 120.0 mg/kg/injection, schedule: Q01DX005 (ip), vehicle: distilled water + Tween-80) of the same molecule?
Answer: 112 % of control and 120 % of control

Question: What about the T/C (dose: 125.0 mg/kg/injection, schedule: Q01DX005 (ip), vehicle: distilled water + Tween-80) of the same molecule?
Answer: 154 % of control

Question: With `CCCCCCCCCCCC(=O)OC/C=C/COC(=O)c1ccccc1` as the molecule, how does the T/C (dose: 50.0 mg/kg/injection, schedule: Q01DX009 (ip), vehicle: Klucel (hydroxypropylcellulose) (HPC)) read?
Answer: 100 % of control

Question: And the T/C (dose: 100.0 mg/kg/injection, schedule: Q01DX009 (ip), vehicle: Klucel (hydroxypropylcellulose) (HPC))?
Answer: 108 % of control

Question: What about the T/C (dose: 200.0 mg/kg/injection, schedule: Q01DX009 (ip), vehicle: Klucel (hydroxypropylcellulose) (HPC)) of the same molecule?
Answer: 96 % of control

Question: What does the source list for `NCc1ccccc1Br`?
Answer: T/C (dose: 50.0 mg/kg/injection, schedule: Q01DX005 (ip), vehicle: distilled water + alcohol): 101 % of control; T/C (dose: 100.0 mg/kg/injection, schedule: Q01DX005 (ip), vehicle: distilled water + alcohol): 100 % of control; T/C (dose: 200.0 mg/kg/injection, schedule: Q01DX005 (ip), vehicle: distilled water + alcohol): 103 % of control

Question: For `Cc1ccccc1NC(=O)Nc1sc(=S)c2c(c1C#N)CCCC2`, which T/C [1] is on record?
Answer: 94 % of control

Question: And the T/C [2]?
Answer: 103 % of control

Question: And the T/C (dose: 200.0 mg/kg/injection, schedule: Q01DX005 (ip), vehicle: saline with Tween-80)?
Answer: 103 % of control

Question: For `COc1ccc(-c2csc(NC(=O)Nc3nc(-c4ccc(OC)cc4)cs3)n2)cc1`, which T/C (dose: 15.0 mg/kg/injection, schedule: Q01DX005 (ip), vehicle: saline with Tween-80) is on record?
Answer: 97 % of control

Question: What about the T/C (dose: 30.0 mg/kg/injection, schedule: Q01DX005 (ip), vehicle: saline with Tween-80) of the same molecule?
Answer: 100 % of control

Question: What about the T/C [3] of the same molecule?
Answer: 87 % of control and 91 % of control

Question: For `CCCCCCC[CH2][Sn]([CH2]CCCCCCC)([NH]S(=O)(=O)c1ccc(C)cc1)[NH]S(=O)(=O)c1ccc(C)cc1`, which T/C (dose: 25.0 mg/kg/injection, schedule: Q04DX003 (ip), vehicle: saline sonified) is on record?
Answer: 100 % of control

Question: What about the T/C (dose: 50.0 mg/kg/injection, schedule: Q04DX003 (ip), vehicle: saline sonified) of the same molecule?
Answer: 122 % of control

Question: And the T/C (dose: 100.0 mg/kg/injection, schedule: Q04DX003 (ip), vehicle: saline sonified)?
Answer: 100 % of control

Question: What does the source list for `Cc1c(-c2ccccc2)nnn1-c1ccc(F)cc1F`?
Answer: T/C [3]: 101 % of control; T/C [4]: 99 % of control; T/C [5]: 92 % of control

Question: `O=C1c2ccccc2-c2cccc3ccnc1c23` was tested. Which T/C (dose: 8.0 mg/kg/injection, schedule: Q01DX009 (ip), vehicle: Klucel (hydroxypropylcellulose) (HPC)) did it give?
Answer: 103 % of control

Question: And the T/C (dose: 16.0 mg/kg/injection, schedule: Q01DX009 (ip), vehicle: Klucel (hydroxypropylcellulose) (HPC))?
Answer: 101 % of control

Question: What about the T/C (dose: 32.0 mg/kg/injection, schedule: Q01DX009 (ip), vehicle: Klucel (hydroxypropylcellulose) (HPC)) of the same molecule?
Answer: 103 % of control

Question: And the T/C (dose: 64.0 mg/kg/injection, schedule: Q01DX009 (ip), vehicle: Klucel (hydroxypropylcellulose) (HPC))?
Answer: 100 % of control
